Assay results published in US20250122202A1, “EGFR INHIBITOR, PREPARATION METHOD THEREFOR AND USE THEREOF” (SHANDONG NEW TIME PHARMACEUTICAL CO., LTD., priority 2021, published 2025).
Read-outs that look alike come from different tables or passages of the source.

Tests used:
[1] = system: KC-1474:PC-9 EGFR-Del19/T790M/C797S; experiment: Cell proliferation inhibition experiment (CCK-8), KC-1474; assay type: cell-based; settings: Homo sapiens, 72 h
Source text: (§1) Inhibition rate %=[(A0−AS)/(A0−AC)]×100%.

[2] = system: KC-0178:NCI-1975 EGFR-L858R/T790M/C797S; experiment: Cell proliferation inhibition experiment (CCK-8), KC-0178; assay type: cell-based; settings: Homo sapiens, 72 h
Source text: as §1

A549 EGFR-WT = experiment: Cell proliferation inhibition experiment (CCK-8), A549; settings: Homo sapiens, A549, 72 h, read-out: cell proliferation inhibition IC50 (μM) A549, 72 h, CCK-8
[3] = molecular target: EGFR-Del19/T790M/C797S kinase (Homo sapiens, UniProt P00533, C797S/T790M, form not given); experiment: In-vitro enzyme experiment 2 (HTRF kinase assay), EGFR Del19 T790M C797S; assay type: biochemical; settings: read-out: enzyme inhibition IC50 (nM) EGFR-Del19/T790M/C797S
EGFR-Del19/T790M/C797S kinase, sequence (P00533 25-1210 T790M/C797S limits assumed, form open): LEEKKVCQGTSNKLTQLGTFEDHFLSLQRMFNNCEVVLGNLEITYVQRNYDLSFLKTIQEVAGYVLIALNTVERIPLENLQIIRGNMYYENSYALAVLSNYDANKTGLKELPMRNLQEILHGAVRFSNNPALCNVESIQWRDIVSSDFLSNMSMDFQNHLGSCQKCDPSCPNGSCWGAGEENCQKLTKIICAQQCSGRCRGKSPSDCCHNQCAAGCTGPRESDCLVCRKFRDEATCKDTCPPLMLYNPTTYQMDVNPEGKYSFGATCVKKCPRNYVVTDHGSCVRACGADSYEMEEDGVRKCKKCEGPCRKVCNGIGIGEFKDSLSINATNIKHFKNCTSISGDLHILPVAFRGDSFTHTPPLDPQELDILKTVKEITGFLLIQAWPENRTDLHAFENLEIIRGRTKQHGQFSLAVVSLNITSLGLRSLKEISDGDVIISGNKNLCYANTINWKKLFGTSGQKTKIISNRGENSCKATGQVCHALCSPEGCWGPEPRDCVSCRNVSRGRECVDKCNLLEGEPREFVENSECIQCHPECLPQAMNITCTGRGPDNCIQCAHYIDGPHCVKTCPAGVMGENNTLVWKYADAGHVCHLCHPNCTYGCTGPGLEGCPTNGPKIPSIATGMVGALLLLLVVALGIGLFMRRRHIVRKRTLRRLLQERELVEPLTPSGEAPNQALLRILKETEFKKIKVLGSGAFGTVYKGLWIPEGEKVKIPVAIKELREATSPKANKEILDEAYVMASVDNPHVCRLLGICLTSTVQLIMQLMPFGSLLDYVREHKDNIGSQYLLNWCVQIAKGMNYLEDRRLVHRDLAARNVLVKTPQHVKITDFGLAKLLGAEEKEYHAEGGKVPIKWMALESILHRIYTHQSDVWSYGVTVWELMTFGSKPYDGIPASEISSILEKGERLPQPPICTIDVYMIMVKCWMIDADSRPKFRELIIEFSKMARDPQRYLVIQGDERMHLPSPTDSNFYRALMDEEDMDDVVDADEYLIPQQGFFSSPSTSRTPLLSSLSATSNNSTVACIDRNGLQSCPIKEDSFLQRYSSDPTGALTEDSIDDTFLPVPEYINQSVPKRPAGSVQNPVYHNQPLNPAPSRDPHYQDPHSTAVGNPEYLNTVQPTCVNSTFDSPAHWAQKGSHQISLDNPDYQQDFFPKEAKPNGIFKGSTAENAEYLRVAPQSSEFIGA
Procedure: The specific experiment was as follows: • 1. […] Test method of activity of compound • a) a compound diluent was transferred to each well of an assay plate (784075, Greiner) using Echo 550; • b) the assay plate was sealed and centrifuged at 1,000 g for 1 min; • c) 2×EGFR (D770-N771 ins NPG T790M) was prepared in a 1× kinase buffer; • d) 5 μl of the 2×EGFR (D770-N771 ins NPG T790M) was added to a 384-well assay plate (784075, Greiner); • e) the assay plate was centrifuged at 1,000 g for 30 s and incubated at room temperature for 10 min; • f) 2× TK-substrate-biotin (2 μM) and ATP were added to the 1× kinase buffer and mixed; • g) the reaction was started after adding 5 μl of the TK-substrate-biotin (2 μM) and ATP mixture; • h) the assay plate was centrifuged at 1,000 g for 30 s; and the assay plate was sealed and incubated at room temperature for 40 min; • i) 4× Sa-XL 665 was prepared in an HTRF detection buffer; • j) 5 μl of the Sa-XL 665 and 5 μl of a TK-antibody-cryptate were added to each well of the assay plate; • k) the assay plate was centrifuged at 1,000 g for 30 s and incubated at room temperature for 1 h; and • l) fluorescence signals at 615 nm (cryptate) and 665 nm (XL665) were read on an Envision 2104 reader. • 3. Data analysis • 3.1 Calculation of ratio (665/615 nm) of each well • 3.2 Calculation of inhibition rate
(§2) [formula] • 3.3 Calculation of IC50 value of compound and drawing dose-effect curve of compound • IC50 values were calculated using GraphPad 6.0 by applying a non-linear regression curve (dose-effect relationship-variable slope) of the logarithm of the compound concentration versus the inhibition rate.
The preparation of the kinase buffer, the test method of the activity of the compound, and the data analysis referred to the relevant definitions in example 117, wherein step c) of the test method of the activity of the compound was replaced by preparing 2×EGFR Del19 T790M C797S in the 1× kinase buffer.

PC-9 EGFR-Del19 = experiment: Cell proliferation inhibition experiment (CCK-8), PC-9; assay type: cell-based; settings: Homo sapiens, 72 h
Source text: as §1

H1975 EGFR-L858R/T790M = experiment: Cell proliferation inhibition experiment (CCK-8), H1975; assay type: cell-based; settings: Homo sapiens, NCI-H1975, 72 h
Source text: as §1

[4] = molecular target: EGFR (D770-N771 ins NPG T790M) kinase (Homo sapiens (Human), UniProt P00533, INS770NPG/T790M); experiment: In-vitro enzyme experiment 1 (HTRF kinase assay), EGFR D770-N771 ins NPG T790M; assay type: biochemical
EGFR (D770-N771 ins NPG T790M) kinase, sequence (P00533 other isoform, or with tags, fused parts or gaps T790M/del 1-668/ins NPG behind 770 limits assumed): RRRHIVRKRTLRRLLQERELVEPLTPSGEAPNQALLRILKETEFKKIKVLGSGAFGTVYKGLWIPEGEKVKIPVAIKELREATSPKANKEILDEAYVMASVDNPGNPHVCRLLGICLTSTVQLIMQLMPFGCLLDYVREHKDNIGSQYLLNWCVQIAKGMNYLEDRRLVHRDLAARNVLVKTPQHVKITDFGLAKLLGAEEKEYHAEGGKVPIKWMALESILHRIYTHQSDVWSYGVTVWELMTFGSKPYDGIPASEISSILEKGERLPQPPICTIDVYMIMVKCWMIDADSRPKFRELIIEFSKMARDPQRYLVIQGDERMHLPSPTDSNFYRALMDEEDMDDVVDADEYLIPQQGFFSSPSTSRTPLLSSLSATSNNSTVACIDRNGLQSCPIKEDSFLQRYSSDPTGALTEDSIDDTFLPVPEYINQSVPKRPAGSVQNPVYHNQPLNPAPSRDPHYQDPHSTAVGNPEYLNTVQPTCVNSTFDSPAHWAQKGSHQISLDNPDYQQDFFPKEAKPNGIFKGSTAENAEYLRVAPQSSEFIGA
Procedure: The specific experiment was as follows: • 1. Preparation of 1× concentration kinase buffer • 1 volume of 5 times concentration of an enzyme buffer diluted with 4 volumes of distilled water; 5 mM magnesium chloride; 1 mM DTT; and 1 mM MnCl2. • 2. Test method of activity of compound • a) a compound diluent was transferred to each well of an assay plate (784075, Greiner) using Echo 550; • b) the assay plate was sealed and centrifuged at 1,000 g for 1 min; • c) 2×EGFR (D770-N771 ins NPG T790M) was prepared in a 1× kinase buffer; • d) 5 μl of the 2×EGFR (D770-N771 ins NPG T790M) was added to a 384-well assay plate (784075, Greiner); • e) the assay plate was centrifuged at 1,000 g for 30 s and incubated at room temperature for 10 min; • f) 2× TK-substrate-biotin (2 μM) and ATP were added to the 1× kinase buffer and mixed; • g) the reaction was started after adding 5 μl of the TK-substrate-biotin (2 μM) and ATP mixture; • h) the assay plate was centrifuged at 1,000 g for 30 s; and the assay plate was sealed and incubated at room temperature for 40 min; • i) 4× Sa-XL 665 was prepared in an HTRF detection buffer; • j) 5 μl of the Sa-XL 665 and 5 μl of a TK-antibody-cryptate were added to each well of the assay plate; • k) the assay plate was centrifuged at 1,000 g for 30 s and incubated at room temperature for 1 h; and • l) fluorescence signals at 615 nm (cryptate) and 665 nm (XL665) were read on an Envision 2104 reader. • 3. Data analysis • 3.1 Calculation of ratio (665/615 nm) of each well • 3.2 Calculation of inhibition rate
as §2
Y=lowest value+(highest value−lowest value)/(1+10^((Log IC50−X)×slope)) • X: logarithm of inhibitor concentration; and Y: inhibition rate. • 3.4 Double test report • 3.4.1 After one tester completed a report, another tester again checked the report to ensure that data analysis was correct. • 3.4.2 The data was exported from the software and manually analyzed. • 3.4.2.1 The rate was converted into the inhibition rate. All the IC50 values were first calculated with the inhibition rate using Prism GraphPad 6.0. • 3.4.2.2 Then the IC50 value was recalculated using the ratio to check the accuracy of the analysis. • 3.4.3 The number of all the compounds was ensured to be correct.

[5] = molecular target: EGFR D770-N771 ins NPG kinase (Homo sapiens (Human), UniProt P00533, INS770NPG); experiment: In-vitro enzyme experiment 1 (HTRF kinase assay), D770-N771 ins NPG kinase; assay type: biochemical
EGFR D770-N771 ins NPG kinase, sequence (P00533 other isoform, or with tags, fused parts or gaps del 1-668/ins NPG behind 770 limits assumed): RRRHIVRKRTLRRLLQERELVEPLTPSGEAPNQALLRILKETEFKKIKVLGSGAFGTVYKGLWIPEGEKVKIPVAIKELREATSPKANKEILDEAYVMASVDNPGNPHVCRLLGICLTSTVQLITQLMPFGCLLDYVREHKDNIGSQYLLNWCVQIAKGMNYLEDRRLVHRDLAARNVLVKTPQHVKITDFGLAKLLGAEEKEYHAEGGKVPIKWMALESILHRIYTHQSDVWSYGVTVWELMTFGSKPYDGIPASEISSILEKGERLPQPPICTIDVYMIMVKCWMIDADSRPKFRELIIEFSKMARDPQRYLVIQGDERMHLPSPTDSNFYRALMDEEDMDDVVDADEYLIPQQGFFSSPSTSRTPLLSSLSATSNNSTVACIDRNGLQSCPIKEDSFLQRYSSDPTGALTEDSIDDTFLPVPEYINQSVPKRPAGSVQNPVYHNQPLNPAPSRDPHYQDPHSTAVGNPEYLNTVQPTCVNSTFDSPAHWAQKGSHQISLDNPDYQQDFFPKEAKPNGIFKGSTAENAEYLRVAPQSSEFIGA

[6] = system: KC-1362 BaF3-EGFR D770-N771 ins NPG cells; experiment: Anti-proliferative activity on KC-1362 BaF3-EGFR D770-N771 ins NPG cells; assay type: cell-based; settings: Ba/F3 EGFR

Structure (SMILES)	IC50 [1] [µM]	IC50 (A549 EGFR-WT; Table 5 numeric) [µM]	IC50 [3] [nM]	IC50 (PC-9 EGFR-Del19) [µM]	IC50 (H1975 EGFR-L858R/T790M) [µM]	IC50 (A549 EGFR-WT) [µM]	IC50 [4] [nM]	IC50 [5] [nM]	IC50 [6] [nM]	IC50 [2] [µM]
CN1CCN(c2ccc(Nc3nc(N[C@H]4C=C[C@@H](CO)C4)c4c(C(=O)c5ccc(F)cc5)c[nH]c4n3)cc2)CC1 [Example 20]	0.1 to 1	–	10 to 100	< 0.1	0.1 to 1	0.1 to 1	–	–	–	1 to 2
CN1CCN(c2ccc(Nc3nc(N[C@@H]4CC[C@@H](CO)OC4)c4c(C(=O)c5ccc(F)cc5)c[nH]c4n3)cc2)CC1 [Example 95]	0.1 to 1	–	10 to 100	–	–	–	–	–	–	< 0.1
Cc1ccc(C(=O)c2c[nH]c3nc(Nc4ccc(N5CCOCC5)cc4)nc(N[C@H]4CC[C@H](CO)CC4)c23)cc1 [Example 97]	0.1 to 1	–	–	–	–	–	–	–	–	0.1 to 1
CN1CCN(c2ccc(Nc3nc(N[C@@H]4C=C[C@H](CO)C4)c4c(C(=O)c5ccc(F)cc5)c[nH]c4n3)cc2)CC1 [Example 19]	0.1 to 1	–	10 to 100	< 0.1	0.1 to 1	0.1 to 1	–	–	–	1 to 2
CN1CCN(c2ccc(Nc3nc(NC4CCN(S(C)(=O)=O)CC4)c4c(C(=O)c5ccc(F)cc5)c[nH]c4n3)cc2)CC1 [Example 64]	–	–	100 to 600	–	–	–	93.6	24.2	200	–
COc1nn(C)cc1Nc1nc(N[C@H]2CC[C@@H](CO)CC2)c2c(C(=O)c3ccc(F)cc3)c[nH]c2n1 [Example 116]	0.1 to 1	–	10 to 100	< 0.1	0.1 to 1	1 to 2	–	–	–	1 to 2
COc1cc(N2CCN(C)CC2)ccc1Nc1nc(N[C@H]2CC[C@@H](CO)CC2)c2c(C(=O)c3ccc(F)cc3)c[nH]c2n1 [Example 106]	0.1 to 1	–	10 to 100	–	–	–	–	–	–	1 to 2

More lines, main results first:

IC50 [1] [µM]	IC50 (A549 EGFR-WT; Table 5 numeric) [µM]	IC50 [3] [nM]	IC50 (PC-9 EGFR-Del19) [µM]	IC50 (H1975 EGFR-L858R/T790M) [µM]	IC50 (A549 EGFR-WT) [µM]	IC50 [4] [nM]	IC50 [5] [nM]	IC50 [6] [nM]	Structure (SMILES)	IC50 [2] [µM]
0.1 to 1	1.06	–	–	–	–	–	–	–	C=CC(=O)Nc1cccc(Oc2nc(Nc3ccc(N4CCN(C)CC4)c(F)c3)nc3[nH]ccc23)c1 [Avitinib, reference compound]	1 to 2
< 0.1	–	10 to 100	< 0.1	0.1 to 1	0.1 to 1	–	–	–	CN1CCN(c2ccc(Nc3nc(N[C@H]4CC[C@@H](O)CC4)c4c(C(=O)c5ccc(F)cc5)c[nH]c4n3)cc2)CC1 [Example 55]	0.1 to 1
< 0.1	–	< 10	< 0.1	0.1 to 1	–	–	–	–	CN1CCN(c2ccc(Nc3nc(N[C@H]4CC[C@@H](N)CC4)c4c(C(=O)c5ccc(F)cc5)c[nH]c4n3)cc2)CC1 [Example 86]	1 to 2
< 0.1	–	10 to 100	< 0.1	0.1 to 1	0.1 to 1	–	–	–	CN1CCN(c2ccc(Nc3nc(N[C@H]4CC[C@@H](CO)CC4)c4c(C(=O)c5ccc(F)cc5)c[nH]c4n3)cc2F)CC1 [Example 103]	1 to 2
